# Results: US4427686A, “Pharmacologically active benzopyranotriazole compounds” (Beecham Group Limited, priority 1980, dated 1984)
# What was measured:
# [1] = test system: rat passive peritoneal anaphylaxis; experiment: Rat Passive Peritoneal Anaphylaxis (PPA); type: in vivo, rat (Charles River Sprague Dawley male); details: Mean ± SEM, 5-7 rats per group, sodium salt
# From the text: (a) inhibit rat passive peritoneal anaphylaxis; and
# (§1) The compounds were used in the form of their sodium salts.
# (§2) Charles River Sprague Dawley male rats of 250-300 g. and Dunkin Hartley male white guinea pigs of 250-300 g. were used.
# The method has been described previously. (Ross, Janet W., Smith, H. and Spicer, Barbara A. Increased vascular permeability during passive peritoneal anaphylaxis in the rate. Int. Arch. Allergy appl. Immun., 51, 226, 1976).
# Rats were sensitised by giving an intraperitoneal injection of 0.5 ml of Bordetella pertussis vaccine (4×10^10 organisms/ml Burroughs Wellcome, London) and a subcutaneous injection of 0.5 ml of an emulsion of 100 mg of ovalbumin (chicken egg albumin, crystallised and lyophilised, grade 3, Sigma, London) in 2 ml of isotonic saline and 3 ml of Freund's incomplete adjuvant (Difco Laboratories, Michigan, USA).
# The rats were bled by cardiac puncture, on day 18, the blood was pooled, and the serum separated, stored at -20° C. and thawed only once before use.
# Rats were each given an intraperitoneal injection of 2 ml of a 1 in 5 dilution of the rat anti-serum in isotonic saline. Two hours later 0.3 ml of a 5% solution of Pontamine Sky Blue (Raymond A. Lamb, London) in isotonic saline was injected intravenously, followed by an intraperitoneal injection of the test compound in 1 ml of saline; (control rats received 1 ml of saline); followed 30 seconds later by an intraperitoneal injection of 5 ml of Tyrode's solution containing 50 μg/ml heparin and 0.4 mg/ml of ovalbumin. The concentrations of the compounds are quoted as those in the 6 ml of fluid injected intraperitoneally. Exactly five minutes after challenge the rats were stunned and bled and their peritoneal fluids were collected by opening their peritoneal cavities over funnels into polycarbonate tubes in ice. The supernatants were separated from the cellular residue by centrifugation at 150 g. for five minutes and were retained for assay of dye and histamine. Any samples obviously contaminated with blood were not used for estimation of dye. Groups of at least five rats were used for each dose of compound and the treatments were randomised.
# Dye was assayed within two hours by measurement of optical density (OD) at 625 nm.
# For histamine assay 0.5 ml samples of the supernatants were added to 1 ml volumes of 12% trichloracetic acid and stored at -20° C. The deproteinised samples were assayed using an automated spectrofluorimetric system (Technicon Autoanalyser) by a method similar to that of Evans, D. P., Lewis, J. A. and Thomson, D. S.: (An automated fluorimetric assay for the rapid determination of histamine in biological fluids. Life Sci., 12, 327, 1973).
# [2] = test system: slow reacting substance of anaphylaxis, SRS-A, on isolated guinea pig ileum; experiment: SRS-A Antagonism on Guinea Pig Ileum; parameters: species or system guinea pig (Dunkin Hartley male); details: atropine 5×10^-7 M and mepyramine 10^-6 M, sodium salt, read-out: Approximate concentration to give a 50% inhibition of a less than maximal response to SRS-A
# Method: (b) antagonise the spasmogenic effects of slow reacting substance of anaphylaxis, SRS-A, on isolated guinea pig ileum.
# as §1, §2
# The compounds were evaluated as direct antagonists of slow reacting substance of anaphylaxis (SRS-A) by assay using the isolated guinea pig ileum.
# SRS-A rat was obtained from the peritoneal cavity of the rat after passive peritoneal anaphylaxis by a method based on that of R. P. Orange, D. J. Stechschulte and K. F. Austen, J. Immunology, 105, 1087 (1970) as described by J. W. Ross, H. Smith and B. A. Spicer 1976, Increased vascular permeability during passive peritoneal anaphylaxis in the rat. Int. Arch. Allergy appl., 51, 226. The sensitising serum containing antibody was produced in rats as described by J. W. Ross et. al., ibid.
# 2 ml of a 1 in 5 dilution of the sensitising serum was injected by the peritoneal route into recipient rats and after 2 hours 5 ml of Tyrode's solution containing 0.4 mg/ml ovalbumin (Sigma Grade III) and 50 μg/ml heparin was injected by the same route. Five minutes after challenge the rats were stunned and bled and the peritoneal fluids collected into polycarbonate tubes in ice. After centrifugation at 150 g. for five minutes the supernatants were combined, heated in a boiling water bath for five minutes, cooled and stored at -20° C. The combined peritoneal fluids contained SRS-A and were used in the antagonism studies.
# The SRS-A assays were carried out on isolated strips of guinea pig ileum in Tyrode's solution containing atropine 5×10^-7 M and mepyramine 10^-6 M as described by W. E. Brocklehurst, J. Physiology, 151, 416 (1960).
# The ability of the antagonists was determined by their ability to reduce submaximal responses induced by SRS-A. The antagonists were added to the 4 ml bath in 0.1 ml volumes in aqueous solution half a minute before the addition of SRS-A and were present during induced contraction.
# released SRS-A = details: background art; cited from earlier work
# [3] = test system: release of allergic response mediators; details: background art; cited from earlier work
SMILES,IC50 [2] [nM],Dye concentration in peritoneal fluid as % of mean of controls ([1]; 2 × 10^-6 M injected ip),Histamine concentration in peritoneal fluid as % of mean of controls ([1]; 2 × 10^-6 M injected ip),Dye concentration in peritoneal fluid as % of mean of controls ([1]; 2 × 10^-7 M injected ip),Histamine concentration in peritoneal fluid as % of mean of controls ([1]; 2 × 10^-7 M injected ip),Dye concentration in peritoneal fluid as % of mean of controls ([1]; 2 × 10^-5 M injected ip),Histamine concentration in peritoneal fluid as % of mean of controls ([1]; 2 × 10^-5 M injected ip),inhibition of released SRS-A (released SRS-A),inhibition of release of allergic response mediators [3]
CCCc1c(OCC(O)COc2ccc3c(=O)cc(C(=O)O)oc3c2CCC)ccc(C(C)=O)c1O (stereo not shown) [FPL 55712],,,,,,,,inhibit released SRS-A,able to effect at least some inhibition of release of these allergic response mediators
"CCCc1c(OCCCOc2ccc3c(=O)c4[nH]nnc4oc3c2C)ccc(C(C)=O)c1O [Example 1, 6-[3-(4-Acetyl-3-hydroxy-2-n-propylphenoxy)propan-1-yloxy]-5-methyl-9-oxo-1H,9H-benzopyrano[2,3,d]-v-triazole]",~100,63 ± 5 % of mean of controls,18 ± 2 % of mean of controls,,,54 ± 7 % of mean of controls,17 ± 2 % of mean of controls,,
"CCCc1c(OCC(O)COc2ccc3c(=O)c4[nH]nnc4oc3c2C)ccc(C(C)=O)c1O (stereo not shown) [Example 2, 6-[3-(4-Acetyl-3-hydroxy-2-n-propylphenoxy)-2-hydroxypropan-1-yloxy]-5-methyl-9-oxo-1H,9H-benzopyrano[2,3-d]-v-triazole]",~32,42 ± 5 % of mean of controls,14 ± 2 % of mean of controls,61 ± 7 % of mean of controls,56 ± 1 % of mean of controls,,,,

# Further lines, with some results ahead:
IC50 [2] [nM],SMILES,Dye concentration in peritoneal fluid as % of mean of controls ([1]; 2 × 10^-6 M injected ip),Histamine concentration in peritoneal fluid as % of mean of controls ([1]; 2 × 10^-6 M injected ip),Dye concentration in peritoneal fluid as % of mean of controls ([1]; 2 × 10^-7 M injected ip),Histamine concentration in peritoneal fluid as % of mean of controls ([1]; 2 × 10^-7 M injected ip),Dye concentration in peritoneal fluid as % of mean of controls ([1]; 2 × 10^-5 M injected ip),Histamine concentration in peritoneal fluid as % of mean of controls ([1]; 2 × 10^-5 M injected ip),inhibition of released SRS-A (released SRS-A),inhibition of release of allergic response mediators [3]
~63,"CCCc1c(OCC(O)COc2ccc3c(=O)c4[nH]nnc4oc3c2)ccc(C(C)=O)c1O (stereo not shown) [Example 3, 6-[3-(4-Acetyl-3-hydroxy-2-n-propylphenoxy)-2-hydroxypropan-1-yloxy]-9-oxo-1H,9H-benzopyrano[2,3-d]-v-triazole]",51 ± 5 % of mean of controls,16 ± 2 % of mean of controls,74 ± 9 % of mean of controls,56 ± 5 % of mean of controls,,,,
~50,"CCCc1c(OCCCOc2cccc3oc4nn[nH]c4c(=O)c23)ccc(C(C)=O)c1O [Example 4, 8-[3-(4-Acetyl-3-hydroxy-2-n-propylphenoxy)-propan-1-yloxy]-9-oxo-1H,9H-benzopyrano-[2,3-d]-v-triazole]",104 ± 20 % of mean of controls,89 ± 7 % of mean of controls,,,92 ± 10 % of mean of controls,42 ± 6 % of mean of controls,,
